# Where two headings read alike, the source gives them in different places.
# Tested on: PABPC1 PABC
# Type: binding, human
# Settings: DMS-BM library, bait PABPC1 PABC, row aa = residue at this position
# [1] = prey ATXN2, peptide TLNPNAKEFNPRSFSQ, N = wild type
# [2] = prey ATXN2, peptide KSTLNPNAKEFNPRSF, N = wild type
# [3] = prey ATXN2, peptide TLNPNAKEFNPRSFSQ, K = wild type
# [4] = prey ATXN2, peptide TLNPNAKEFNPRSFSQ, P = wild type
# [5] = prey ATXN2, TLNPNAKEFNPRSF(averaged) over the two overlapping peptides, N = wild type
# [6] = prey ATXN2, TLNPNAKEFNPRSF(averaged) over the two overlapping peptides, P = wild type
# [7] = prey ATXN2, TLNPNAKEFNPRSF(averaged) over the two overlapping peptides, F = wild type
substance,measurement,setting,value
TLNPNAKEFNPRSFSQ N5W (TLNPWAKEFNPRSFSQ),"DMS-derived PSSM value, position N5",[1],0.001259
KSTLNPNAKEFNPRSF T3I (KSILNPNAKEFNPRSF),"DMS-derived PSSM value, position T3","prey ATXN2, peptide KSTLNPNAKEFNPRSF, T = wild type",0.1667
TLNPNAKEFNPRSFSQ N10M (TLNPNAKEFMPRSFSQ),"DMS-derived PSSM value, position N10",[1],0.1
KSTLNPNAKEFNPRSF N5F (KSTLFPNAKEFNPRSF),"DMS-derived PSSM value, position N5",[2],0
KSTLNPNAKEFNPRSF L4M (KSTMNPNAKEFNPRSF),"DMS-derived PSSM value, position L4","prey ATXN2, peptide KSTLNPNAKEFNPRSF, L = wild type",0.3054
TLNPNAKEFNPRSF(averaged) S13V (TLNPNAKEFNPRVF),"DMS-derived PSSM value (averaged), position S13","prey ATXN2, TLNPNAKEFNPRSF(averaged) over the two overlapping peptides, S = wild type",0.05819
KSTLNPNAKEFNPRSF F11S (KSTLNPNAKESNPRSF),"DMS-derived PSSM value, position F11","prey ATXN2, peptide KSTLNPNAKEFNPRSF, F = wild type",0
KSTLNPNAKEFNPRSF N12Y (KSTLNPNAKEFYPRSF),"DMS-derived PSSM value, position N12",[2],0.1026
TLNPNAKEFNPRSFSQ K7E (TLNPNAEEFNPRSFSQ),"DMS-derived PSSM value, position K7",[3],0.001823
TLNPNAKEFNPRSFSQ P4K (TLNKNAKEFNPRSFSQ),"DMS-derived PSSM value, position P4",[4],0
TLNPNAKEFNPRSFSQ R12E (TLNPNAKEFNPESFSQ),"DMS-derived PSSM value, position R12","prey ATXN2, peptide TLNPNAKEFNPRSFSQ, R = wild type",0.01629
TLNPNAKEFNPRSFSQ K7S (TLNPNASEFNPRSFSQ),"DMS-derived PSSM value, position K7",[3],0.01353
TLNPNAKEFNPRSF(averaged) N10A (TLNPNAKEFAPRSF),"DMS-derived PSSM value (averaged), position N10",[5],0.08276
TLNPNAKEFNPRSFSQ N3G (TLGPNAKEFNPRSFSQ),"DMS-derived PSSM value, position N3",[1],0
TLNPNAKEFNPRSFSQ L2P (TPNPNAKEFNPRSFSQ),"DMS-derived PSSM value, position L2","prey ATXN2, peptide TLNPNAKEFNPRSFSQ, L = wild type",0.03756
TLNPNAKEFNPRSF(averaged) P11W (TLNPNAKEFNWRSF),"DMS-derived PSSM value (averaged), position P11",[6],0.01933
KSTLNPNAKEFNPRSF K9R (KSTLNPNAREFNPRSF),"DMS-derived PSSM value, position K9","prey ATXN2, peptide KSTLNPNAKEFNPRSF, K = wild type",0.0319
TLNPNAKEFNPRSFSQ F9N (TLNPNAKENNPRSFSQ),"DMS-derived PSSM value, position F9","prey ATXN2, peptide TLNPNAKEFNPRSFSQ, F = wild type",0
KSTLNPNAKEFNPRSF N12M (KSTLNPNAKEFMPRSF),"DMS-derived PSSM value, position N12",[2],0.08333
TLNPNAKEFNPRSF(averaged) N10D (TLNPNAKEFDPRSF),"DMS-derived PSSM value (averaged), position N10",[5],0.04905
TLNPNAKEFNPRSF(averaged) F14V (TLNPNAKEFNPRSV),"DMS-derived PSSM value (averaged), position F14",[7],0.12
TLNPNAKEFNPRSF(averaged) F14S (TLNPNAKEFNPRSS),"DMS-derived PSSM value (averaged), position F14",[7],0.01539
TLNPNAKEFNPRSF(averaged) P4R (TLNRNAKEFNPRSF),"DMS-derived PSSM value (averaged), position P4",[6],0
TLNPNAKEFNPRSF(averaged) P11G (TLNPNAKEFNGRSF),"DMS-derived PSSM value (averaged), position P11",[6],0.05139
KSTLNPNAKEFNPRSF R14V (KSTLNPNAKEFNPVSF),"DMS-derived PSSM value, position R14","prey ATXN2, peptide KSTLNPNAKEFNPRSF, R = wild type",0.03521
TLNPNAKEFNPRSFSQ P11Y (TLNPNAKEFNYRSFSQ),"DMS-derived PSSM value, position P11",[4],0.04593
KSTLNPNAKEFNPRSF P6V (KSTLNVNAKEFNPRSF),"DMS-derived PSSM value, position P6","prey ATXN2, peptide KSTLNPNAKEFNPRSF, P = wild type",0.3743
KSTLNPNAKEFNPRSF S15D (KSTLNPNAKEFNPRDF),"DMS-derived PSSM value, position S15","prey ATXN2, peptide KSTLNPNAKEFNPRSF, S = wild type",0
TLNPNAKEFNPRSFSQ T1S (SLNPNAKEFNPRSFSQ),"DMS-derived PSSM value, position T1","prey ATXN2, peptide TLNPNAKEFNPRSFSQ, T = wild type",0.004758
TLNPNAKEFNPRSFSQ P11T (TLNPNAKEFNTRSFSQ),"DMS-derived PSSM value, position P11",[4],0.2817
KSTLNPNAKEFNPRSF N5P (KSTLPPNAKEFNPRSF),"DMS-derived PSSM value, position N5",[2],0
TLNPNAKEFNPRSF(averaged) N3R (TLRPNAKEFNPRSF),"DMS-derived PSSM value (averaged), position N3",[5],0.012
TLNPNAKEFNPRSF(averaged) N10H (TLNPNAKEFHPRSF),"DMS-derived PSSM value (averaged), position N10",[5],0.03178
TLNPNAKEFNPRSFSQ S15H (TLNPNAKEFNPRSFHQ),"DMS-derived PSSM value, position S15","prey ATXN2, peptide TLNPNAKEFNPRSFSQ, S = wild type",0.01215

# — article PMC12102759 (Protein Science : A Publication of the Protein Society, 2025)
